Measurements taken from ChEMBL document CHEMBL1201862, “PubChem BioAssay data set” (2004).
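Following 48 hours of exposure in 96-well plates, responses at five concentrations were used to interpolate endpoints linearly. Here, GI50 denotes the concentration required for 50% inhibition of growth.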 The source made the active and inactive calls. Rule as the data show it: active = GI50 up to about 1.1 µM and inactive = higher.

Experiments:
Test in all cases: DTP human tumour cell line panel, 48 h
SW-620 = test system: SW-620
HCC 2998 = test system: HCC 2998
SN12C = test system: SN12C
RXF 393 = test system: RXF 393
HCT-116 = test system: HCT-116
K562 = test system: K562
MOLT-4 = test system: MOLT-4
SF-539 = test system: SF-539
HCT-15 = test system: HCT-15
786-0 = test system: 786-0
KM12 = test system: KM12
RPMI-8226 = test system: RPMI-8226
NCI-H226 = test system: NCI-H226
SK-OV-3 = test system: SK-OV-3
NCI-H23 = test system: NCI-H23
COLO 205 = test system: COLO 205
HL-60 = test system: HL-60
SK-MEL-28 = test system: SK-MEL-28
A498 = test system: A498
SF-268 = test system: SF-268

Row | SMILES | GI50 (SW-620) | GI50 (HCC 2998) | GI50 (SN12C) | GI50 (RXF 393) | GI50 (HCT-116) | GI50 (K562) | GI50 (MOLT-4) | GI50 (SF-539) | GI50 (HCT-15) [µM] | GI50 (786-0) | GI50 (KM12) | GI50 (RPMI-8226) | GI50 (NCI-H226) | GI50 (SK-OV-3) | GI50 (NCI-H23) | GI50 (COLO 205) | GI50 (HL-60) | GI50 (SK-MEL-28) | GI50 (A498) | GI50 (SF-268)
1 | CC1=Nc2ccccc2C12C(c1ccccc1)C(c1ccccc1)C(=O)N1c3ccccc3CC12 (stereo not given) | > 100 µM (inactive) | > 100 µM (inactive) | > 100 µM (inactive) | > 100 µM (inactive) | > 100 µM (inactive) | > 100 µM (inactive) | > 100 µM (inactive) | > 100 µM (inactive) | > 100 | > 100 µM (inactive) | > 100 µM (inactive) | > 100 µM (inactive) | > 100 µM (inactive) | > 100 µM (inactive) | > 100 µM (inactive) | > 100 µM (inactive) | > 100 µM (inactive) | > 100 µM (inactive) | > 100 µM (inactive) | –
2 | CCOC(=O)c1nc2ccccc2n(CC)c1=O | > 100 µM (inactive) | > 100 µM (inactive) | > 100 µM (inactive) | > 100 µM (inactive) | > 100 µM (inactive) | > 100 µM (inactive) | > 100 µM (inactive) | > 100 µM (inactive) | > 100 | – | > 100 µM (inactive) | > 100 µM (inactive) | > 100 µM (inactive) | > 100 µM (inactive) | > 100 µM (inactive) | > 100 µM (inactive) | > 100 µM (inactive) | > 100 µM (inactive) | > 100 µM (inactive) | > 100 µM (inactive)
3 | CCOC(=O)C1C(=O)CN2CCc3c([nH]c4ccccc34)C12C(=O)OCC (stereo not given) | > 100 µM (inactive) | > 100 µM (inactive) | > 100 µM (inactive) | > 100 µM (inactive) | > 100 µM (inactive) | > 100 µM (inactive) | > 100 µM (inactive) | > 100 µM (inactive) | > 100 | > 100 µM (inactive) | > 100 µM (inactive) | – | > 100 µM (inactive) | > 100 µM (inactive) | > 100 µM (inactive) | > 100 µM (inactive) | > 100 µM (inactive) | > 100 µM (inactive) | > 100 µM (inactive) | > 100 µM (inactive)
4 | CN=S(=O)(C[C@]1(O)CC2OC1C1OC(C)(C)OC21)c1ccccc1 (stereo not given in full) | > 100 µM (inactive) | > 100 µM (inactive) | > 100 µM (inactive) | > 100 µM (inactive) | > 100 µM (inactive) | > 100 µM (inactive) | > 100 µM (inactive) | > 100 µM (inactive) | > 100 | > 100 µM (inactive) | > 100 µM (inactive) | > 100 µM (inactive) | > 100 µM (inactive) | > 100 µM (inactive) | > 100 µM (inactive) | > 100 µM (inactive) | > 100 µM (inactive) | > 100 µM (inactive) | > 100 µM (inactive) | > 100 µM (inactive)
5 | O=S(=O)(N/N=C/c1c(Cl)cccc1Cl)c1ccccc1 | > 100 µM (inactive) | > 100 µM (inactive) | > 100 µM (inactive) | 55.5 µM (inactive) | > 100 µM (inactive) | > 100 µM (inactive) | 91.4 µM (inactive) | > 100 µM (inactive) | > 100 | – | > 100 µM (inactive) | > 100 µM (inactive) | > 100 µM (inactive) | > 100 µM (inactive) | > 100 µM (inactive) | > 100 µM (inactive) | 29.9 µM (inactive) | > 100 µM (inactive) | > 100 µM (inactive) | > 100 µM (inactive)
6 | COc1ccc(-c2c3c([nH]c(=S)c2C#N)CC(C)(C)CC3=O)cc1 | > 100 µM (inactive) | > 100 µM (inactive) | > 100 µM (inactive) | > 100 µM (inactive) | > 100 µM (inactive) | 61.7 µM (inactive) | > 100 µM (inactive) | > 100 µM (inactive) | > 100 | > 100 µM (inactive) | > 100 µM (inactive) | > 100 µM (inactive) | > 100 µM (inactive) | – | > 100 µM (inactive) | – | > 100 µM (inactive) | > 100 µM (inactive) | 55.6 µM (inactive) | > 100 µM (inactive)
7 | CN(COC(=O)C(C)(C)C)c1nc(N(C)COC(=O)C(C)(C)C)nc(N(C)COC(=O)C(C)(C)C)n1 | 22 µM (inactive) | 34.3 µM (inactive) | > 100 µM (inactive) | 21 µM (inactive) | 18.8 µM (inactive) | 24 µM (inactive) | 24.8 µM (inactive) | > 100 µM (inactive) | 21 | 28.6 µM (inactive) | > 100 µM (inactive) | – | > 100 µM (inactive) | > 100 µM (inactive) | > 100 µM (inactive) | 16 µM (inactive) | 29.2 µM (inactive) | > 100 µM (inactive) | > 100 µM (inactive) | 34.8 µM (inactive)
8 | COc1ccc(-c2cc(=O)c3c(OC)c(O)c(OC)cc3o2)cc1 | 54.3 µM (inactive) | 47 µM (inactive) | 26.9 µM (inactive) | 36.6 µM (inactive) | 46.8 µM (inactive) | 52.4 µM (inactive) | 59.3 µM (inactive) | 77.4 µM (inactive) | 35 | 47.4 µM (inactive) | – | 27.8 µM (inactive) | 70 µM (inactive) | 50.7 µM (inactive) | 48.5 µM (inactive) | 49 µM (inactive) | 52 µM (inactive) | > 100 µM (inactive) | 30 µM (inactive) | 91.4 µM (inactive)
9 | C/C=C/C(C#N)O[Si](C)(C)C (stereo not given) | > 100 µM (inactive) | > 100 µM (inactive) | > 100 µM (inactive) | > 100 µM (inactive) | > 100 µM (inactive) | – | > 100 µM (inactive) | > 100 µM (inactive) | > 100 | > 100 µM (inactive) | > 100 µM (inactive) | – | > 100 µM (inactive) | > 100 µM (inactive) | > 100 µM (inactive) | > 100 µM (inactive) | > 100 µM (inactive) | > 100 µM (inactive) | > 100 µM (inactive) | > 100 µM (inactive)
10 | C/C(=C/c1c(C)[nH]c(=O)[nH]c1=O)C(=O)O | > 1370 µM (inactive) | > 1370 µM (inactive) | > 1370 µM (inactive) | > 1370 µM (inactive) | > 1370 µM (inactive) | > 1370 µM (inactive) | > 1370 µM (inactive) | > 1370 µM (inactive) | > 1370 | – | > 1370 µM (inactive) | > 1370 µM (inactive) | > 1370 µM (inactive) | > 1370 µM (inactive) | > 1370 µM (inactive) | > 1370 µM (inactive) | > 1370 µM (inactive) | > 1370 µM (inactive) | > 1370 µM (inactive) | > 1370 µM (inactive)
11 | CC(C)(C)c1ccc(-n2c3nc(=O)n(-c4ccccc4CO)c(=O)c-3cc3ccccc32)cc1 | 39.2 µM (inactive) | 38 µM (inactive) | 57.7 µM (inactive) | 22.8 µM (inactive) | 38.4 µM (inactive) | 45.7 µM (inactive) | 16.1 µM (inactive) | 30.5 µM (inactive) | 48.4 | 87.1 µM (inactive) | 37.7 µM (inactive) | – | 28 µM (inactive) | – | 53.1 µM (inactive) | 46.5 µM (inactive) | 23.8 µM (inactive) | 38.7 µM (inactive) | > 100 µM (inactive) | 40.6 µM (inactive)
12 | CCCSc1nc(COC(=O)NC)c(COC(=O)NC)n1C | > 95.7 µM (inactive) | > 100 µM (inactive) | – | 37.4 µM (inactive) | > 100 µM (inactive) | 31.4 µM (inactive) | 27.7 µM (inactive) | > 100 µM (inactive) | > 83 | – | > 100 µM (inactive) | 42 µM (inactive) | > 100 µM (inactive) | > 100 µM (inactive) | > 78.5 µM (inactive) | > 100 µM (inactive) | 43.9 µM (inactive) | – | > 62.7 µM (inactive) | –
13 | CC(=O)c1cccc(NC(=O)C(=O)C(C(=O)c2ccccc2F)C2OC(=O)c3ccccc32)c1 (stereo not given) | 99.5 µM (inactive) | 24.1 µM (inactive) | 27.1 µM (inactive) | 28.1 µM (inactive) | 33.3 µM (inactive) | 32.1 µM (inactive) | 22.8 µM (inactive) | > 10 µM (inactive) | 30.2 | – | 39.7 µM (inactive) | 20.3 µM (inactive) | 19.1 µM (inactive) | 35.4 µM (inactive) | 33.8 µM (inactive) | 18.6 µM (inactive) | 24 µM (inactive) | 50.9 µM (inactive) | 91.6 µM (inactive) | 34.3 µM (inactive)
14 | Cc1ccc(-c2nnc3s/c(=C\c4ccc(N(C)C)cc4)c(=O)n23)cc1 | > 100 µM (inactive) | > 100 µM (inactive) | > 100 µM (inactive) | > 100 µM (inactive) | > 100 µM (inactive) | > 10 µM (inactive) | > 100 µM (inactive) | > 100 µM (inactive) | – | > 100 µM (inactive) | > 100 µM (inactive) | > 100 µM (inactive) | > 100 µM (inactive) | > 100 µM (inactive) | > 100 µM (inactive) | > 100 µM (inactive) | > 100 µM (inactive) | > 100 µM (inactive) | 89.9 µM (inactive) | > 100 µM (inactive)
15 | CCN(CC)c1ccc2cc(C(=O)Nc3nc(C45CC6CC(CC(C6)C4)C5)cs3)c(=O)oc2c1 | > 100 µM (inactive) | > 100 µM (inactive) | > 100 µM (inactive) | > 100 µM (inactive) | > 100 µM (inactive) | > 100 µM (inactive) | > 100 µM (inactive) | > 100 µM (inactive) | > 100 | > 100 µM (inactive) | > 100 µM (inactive) | > 100 µM (inactive) | > 100 µM (inactive) | – | > 100 µM (inactive) | > 100 µM (inactive) | > 100 µM (inactive) | > 100 µM (inactive) | > 100 µM (inactive) | > 100 µM (inactive)
